Laboratory results from US20230121086A1, “RORgT INHIBITOR, PREPARATION METHOD THEREOF AND USE THEREOF” (SUNSHINE LAKE PHARMA CO., LTD., priority 2020, published 2023).

Molecular target: T1, RORγt (Homo sapiens, UniProt P51449)
T1 construct: […]
T1 sequence (P51449 269-508 limits assumed): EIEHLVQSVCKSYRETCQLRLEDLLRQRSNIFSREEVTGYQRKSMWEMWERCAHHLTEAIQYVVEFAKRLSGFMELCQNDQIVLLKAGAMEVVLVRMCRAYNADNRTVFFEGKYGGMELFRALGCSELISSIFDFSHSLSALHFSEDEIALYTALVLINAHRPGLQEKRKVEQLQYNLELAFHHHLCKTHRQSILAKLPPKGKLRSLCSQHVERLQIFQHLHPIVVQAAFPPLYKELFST
Assay: Fluorescence resonance energy transfer (FRET) test, inhibitory activity of RORγt
Assay type: biochemical
Conditions: FRET, B-RORγt LBD / Biotin-SRC1; read-out: IC50

SMILES | IC50 [µM]
CCS(=O)(=O)c1ccc([C@H](CC#N)NC(=O)c2ccc(N3CC(Oc4ccc(C(F)(F)F)cc4)C[C@H]3COC(F)F)cc2)cc1 (single isomer, unassigned) [Example 74] | 0.07
CCS(=O)(=O)c1ccc([C@H](CC#N)NC(=O)c2ccc(N3CC(Oc4ccc(C(F)(F)F)cc4)C[C@H]3COC(F)F)cc2)nc1 (stereo in doubt) [Example 49, N-((S)-2-cyano-1-(5-(ethylsulfonyl)pyridin-2-yl)ethyl)-4-((2S,4S)-2-((difluoromethoxy)methyl)-4-(4-(trifluoromethyl)phenoxy)pyrrolidin-1-yl)benzamide] | 0.028
CCS(=O)(=O)c1ccc([C@H](CC#N)NC(=O)c2ccc(N3CC(Oc4ccc(C(F)(F)F)nc4)C[C@H]3COC(F)F)cc2)cc1 (stereo in doubt) [Example 57, N-((S)-2-cyano-1-(4-(ethylsulfonyl)phenyl)ethyl)-4-((2S,4S)-2-((difluoromethoxy)methyl)-4-((6-(trifluoromethyl)pyridine-3-yl)oxy)pyrrolidin-1-yl)benzamide] | 0.041
CCS(=O)(=O)c1ccc([C@H](CC#N)NC(=O)c2ccc(N3CC(Oc4ccc(C(F)(F)F)cc4)C[C@H]3COC(F)F)cc2F)cc1 (stereo in doubt) [Example 59, N-((S)-2-cyano-1-(4-(ethylsulfonyl)phenyl)ethyl)-4-((2S,4S)-2-((difluoromethoxy)methyl)-4-(4-(trifluoromethyl)phenoxy)pyrrolidin-1-yl)-2-fluorobenzamide] | 0.047
CCS(=O)(=O)c1ccc([C@H](CC#N)NC(=O)c2ccc(N3CC(Oc4ccc(C(F)(F)F)cc4)C[C@H]3COC(F)F)c(OC)c2)cc1 (stereo in doubt) [Example 60, N-((S)-2-cyano-1-(4-(ethylsulfonyl)phenyl)ethyl)-4-((2S,4S)-2-((difluoromethoxy)methyl)-4-(4-(trifluoromethyl)phenoxy)pyrrolidin-1-yl)-3-methoxybenzamide] | 0.081
CCS(=O)(=O)c1ccc([C@H](CC#N)NC(=O)c2cnc(N3CC(Oc4ccc(C(F)(F)F)cc4)C[C@H]3COC(F)(F)F)nc2)cc1 (stereo in doubt) [Example 72, N-((S)-2-cyano-1-(4-(ethylsulfonyl)phenyl)ethyl)-2-((2S,4S)-2-((trifluoromethoxy)methyl)-4-(4-(trifluoromethyl)phenoxy)pyrrolidin-1-yl)pyrimidine-5-carboxamide] | 0.034
CCS(=O)(=O)c1ccc(C(CC#N)NC(=O)c2ccc(N3CC(c4ccc(C(F)(F)F)cc4)C[C@H]3COC(F)F)cc2)cc1 (stereo in doubt) [Example 81, N—((S)-2-cyano-1-(4-(ethylsulfonyl)phenyl)ethyl)-4-((2S,4S)-2-((difluoromethoxy)methyl)-4-(4-(trifluoromethyl)phenyl)pyrrolidin-1-yl)benzamide] | 0.044
CCS(=O)(=O)c1ccc([C@H](CC#N)NC(=O)c2ccc(N3CCC(Oc4ccc(C(F)(F)F)cc4)C3)c(F)c2)cc1 (stereo in doubt) [Example 83, N-((S)-2-cyano-1-(4-(ethylsulfonyl)phenyl)ethyl)-3-fluoro-4-((S)-3-(4-(trifluoromethyl)phenoxy)pyrrolidin-1-yl)benzamide] | 0.091
CCS(=O)(=O)c1ccc([C@H](CC#N)NC(=O)c2ccc(N3C[C@@H](Oc4ccc(-n5ccnc5)cc4)C[C@H]3COC(F)F)cc2)cc1 [Example 5, 4-((2S,4S)-4-(4-(1H-imidazol-1-yl)phenoxy)-2-((difluoromethoxy)methyl)pyrrolidin-1-yl)-N-((S)-2-cyano-1-(4-(ethylsulfonyl)phenyl)ethyl)benzamide] | 0.0361
CCS(=O)(=O)c1ccc([C@H](CC#N)NC(=O)c2ccc(N3C[C@@H](Oc4ccc(N)cc4)C[C@H]3COC(F)F)cc2)cc1 [Example 7, 4-((2S,4S)-4-(4-aminophenoxy)-2-((difluoromethoxy)methyl)pyrrolidin-1-yl)-N-((S)-2-cyano-1-(4-(ethylsulfonyl)phenyl)ethyl)benzamide] | 0.0575
CCS(=O)(=O)c1ccc([C@H](CC#N)NC(=O)c2ccc(N3C[C@@H](Oc4ccc(OC(F)(F)F)nc4)C[C@H]3COC(F)F)cc2)cc1 [Example 11, N-((S)-2-cyano-1-(4-(ethylsulfonyl)phenyl)ethyl)-4-((2S,4S)-2-((difluoromethoxy)methyl)-4-((6-(trifluoromethoxy)pyridin-3-yl)oxy)pyrrolidin-1-yl)benzamide] | 0.027
CCS(=O)(=O)c1ccc([C@H](CC#N)NC(=O)c2ccc(N3C[C@@H](Oc4ccc(OC(F)F)cc4)C[C@H]3COC(F)F)cc2)nc1 [Example 13, N-((S)-2-cyano-1-(5-(ethylsulfonyl)pyridin-2-yl)ethyl)-4-((2S,4S)-2-((difluoromethoxy)methyl)-4-(4-(difluoromethoxy)phenoxy)pyrrolidin-1-yl)benzamide] | 0.0314
CCS(=O)(=O)c1ccc([C@H](CC#N)NC(=O)c2ccc(N3C[C@@H](Oc4ccc(C)nc4)C[C@H]3COC(F)F)cc2)cc1 [Example 15, N-((S)-2-cyano-1-(4-(ethylsulfonyl)phenyl)ethyl)-4-((2S,4S)-2-((difluoromethoxy)methyl)-4-((6-methylpyridin-3-yl)oxy)pyrrolidin-1-yl)benzamide] | 0.0787

Stronger by IC50, values ahead:

IC50 [µM] | SMILES
0.026 | CCS(=O)(=O)c1ccc([C@H](CC#N)NC(=O)c2ccc(N3CC(Oc4ccc(C(F)(F)F)cc4)C[C@H]3COC(F)(F)F)cc2)cc1 (stereo in doubt) [Example 70, N-((S)-2-cyano-1-(4-(ethylsulfonyl)phenyl)ethyl)-4-((2S,4S)-2-((trifluoromethoxy)methyl)-4-(4-(trifluoromethyl)phenoxy)pyrrolidin-1-yl)benzamide]
0.0259 | CCS(=O)(=O)c1ccc([C@H](CC#N)NC(=O)c2ccc(N3C[C@@H](Oc4ccc(OC(F)(F)F)cn4)C[C@H]3COC(F)F)nc2)cc1 [Example 18]
0.0258 | CCS(=O)(=O)c1ccc([C@H](CC#N)NC(=O)c2ccc(N3C[C@@H](Oc4ccc(OC(F)F)nc4)C[C@H]3COC(F)F)cc2)cc1 [Example 9, N-((S)-2-cyano-1-(4-(ethylsulfonyl)phenyl)ethyl)-4-((2S,4S)-2-((difluoromethoxy)methyl)-4-((6-(difluoromethoxy)pyridin-3-yl)oxy)pyrrolidin-1-yl)benzamide]
0.0215 | CCS(=O)(=O)c1ccc([C@@H](CC#N)NC(=O)c2ccc(N3C[C@@H](Oc4ccc(OC(F)F)cc4)C[C@H]3COC(F)F)cc2)cc1 [Example 12, N-((R)-2-cyano-1-(4-(ethylsulfonyl)phenyl)ethyl)-4-((2S,4S)-2-((difluoromethoxy)methyl)-4-(4-(difluoromethoxy)phenoxy)pyrrolidin-1-yl)benzamide]
0.019 | CCS(=O)(=O)c1ccc([C@H](CC#N)NC(=O)c2ccc(N3C[C@@H](Oc4ccc(OC)nc4)C[C@H]3COC(F)F)cc2)cc1 [Example 10, N-((S)-2-cyano-1-(4-(ethylsulfonyl)phenyl)ethyl)-4-((2S,4S)-2-((difluoromethoxy)methyl)-4-((6-methoxypyridine-3-yl)oxy)pyrrolidin-1-yl)benzamide]
0.0188 | CCS(=O)(=O)c1ccc([C@H](CC#N)NC(=O)c2ccc(N3C[C@@H](Oc4ccc(OC(F)(F)F)cn4)C[C@H]3COC(F)F)cc2)cc1 [Example 8, N-((S)-2-cyano-1-(4-(ethylsulfonyl)phenyl)ethyl)-4-((2S,4S)-2-((difluoromethoxy)methyl)-4-((5-(trifluoromethoxy)pyridin-2-yl)oxy)pyrrolidin-1-yl)benzamide]
0.016 | CCS(=O)(=O)c1ccc([C@H](CC#N)NC(=O)c2cnc(N3CC(Oc4ccc(C(F)(F)F)cc4)C[C@H]3COC(F)F)c(F)c2)cc1 (stereo in doubt) [Example 50, N-((S)-2-cyano-1-(4-(ethylsulfonyl)phenyl)ethyl)-6-((2S,4S)-2-((difluoromethoxy)methyl)-4-(4-(trifluoromethyl)phenoxy)pyrrolidin-1-yl)-5-fluoronicotinamide]
0.0149 | CCS(=O)(=O)c1ccc([C@@H](CC#N)NC(=O)c2ccc(N3C[C@@H](Oc4ccc(OC(F)(F)F)cn4)C[C@H]3COC(F)F)cc2)cc1 [Example 17, N-((R)-2-cyano-1-(4-(ethylsulfonyl)phenyl)ethyl)-4-((2S,4S)-2-((difluoromethoxy)methyl)-4-((5-(trifluoromethoxy)pyridin-2-yl)oxy)pyrrolidin-1-yl)benzamide]
0.014 | CCS(=O)(=O)c1ccc([C@H](CCC#N)NC(=O)c2ccc(N3CC(Oc4ccc(C(F)(F)F)cc4)C[C@H]3COC(F)F)cc2)cc1 (stereo in doubt) [Example 51, N-((S)-3-cyano-1-(4-(ethylsulfonyl)phenyl)propyl)-4-((2S,4S)-2-((difluoromethoxy)methyl)-4-(4-(trifluoromethyl)phenoxy)pyrrolidin-1-yl)benzamide]
0.008 | CCS(=O)(=O)c1ccc([C@@H](CC#N)NC(=O)c2ccc(N3CC(Oc4ccc(C(F)(F)F)cc4)C[C@H]3COC(F)F)cc2)cc1 (stereo in doubt) [Example 48, N-((R)-2-cyano-1-(4-(ethylsulfonyl)phenyl)ethyl)-4-((2S,4S)-2-((difluoromethoxy)methyl)-4-(4-(trifluoromethyl)phenoxy)pyrrolidin-1-yl)benzamide]
0.007 | CCS(=O)(=O)c1ccc([C@H](CC#N)NC(=O)c2ccc(N3CC(Oc4ccc(OC)cc4)C[C@H]3COC(F)F)cc2)cc1 (stereo in doubt) [Example 63, N-((S)-2-cyano-1-(4-(ethylsulfonyl)phenyl)ethyl)-4-((2S,4S)-2-((difluoromethoxy)methyl)-4-(4-methoxyphenoxy)pyrrolidin-1-yl)benzamide]
